Data published in US11472791B2 (Incyte Corporation, priority 2019, dated 2022).

Each molecule was assayed against CDK2/Cyclin E1 (Homo sapiens (Human), UniProt P24941) (assay: CDK2/Cyclin E1 HTRF enzyme activity assay). Conditions: 1 mM ATP.
Assay type: biochemical
Description: Assays are conducted in white 384-well polystyrene plates in a final reaction volume of 8 μL. […] HTRF signals are read after 1 hour at room temperature on a PHERAstar FS plate reader (BMG Labtech). Data is analyzed with IDBS XLFit and GraphPad Prism 5.0 software using a three or four parameter dose response curve to determine IC50 for each compound.

Structure (SMILES) | IC50 [nM]
CCN(CC)CCCS(=O)(=O)N1CCC(Nc2ncc(C#N)c(-c3cnn(CC(C)(C)O)c3)n2)CC1 [Example 213, 2-((1-((3-(Diethylamino)propyl)sulfonyl)piperidin-4-yl)amino)-4-(1-(2-hydroxy-2-methylpropyl)-1H-pyrazol-4-yl)pyrimidine-5-carbonitrile] | < 50
CC(C)(O)Cn1cc(-c2nc(NC3CCN(S(=O)(=O)CCCN4CCCC4)CC3)ncc2C#N)cn1 [Example 214, 4-(1-(2-Hydroxy-2-methylpropyl)-1H-pyrazol-4-yl)-2-((1-((3-(pyrrolidin-1-yl)propyl)sulfonyl)piperidin-4-yl)amino)pyrimidine-5-carbonitrile] | < 50
CC(C)(O)Cn1cc(-c2nc(NC3CCN(S(=O)(=O)CCCN4CCCCC4)CC3)ncc2C#N)cn1 [Example 215, 4-(1-(2-Hydroxy-2-methylpropyl)-1H-pyrazol-4-yl)-2-((1-((3-(piperidin-1-yl)propyl)sulfonyl)piperidin-4-yl)amino)pyrimidine-5-carbonitrile] | < 50
CCN(CC)CCCCS(=O)(=O)N1CCC(Nc2ncc(C#N)c(-c3cnn(CC(C)(C)O)c3)n2)CC1 [Example 216, 2-((1-((4-(Diethylamino)butyl)sulfonyl)piperidin-4-yl)amino)-4-(1-(2-hydroxy-2-methylpropyl)-1H-pyrazol-4-yl)pyrimidine-5-carbonitrile] | < 50
CC(C)(O)Cn1cc(-c2nc(NC3CCN(S(=O)(=O)CCCCN4CCCC4)CC3)ncc2C#N)cn1 [Example 217, 4-(1-(2-Hydroxy-2-methylpropyl)-1H-pyrazol-4-yl)-2-((1-((4-(pyrrolidin-1-yl)butyl)sulfonyl)piperidin-4-yl)amino)pyrimidine-5-carbonitrile] | < 50
CC(C)(O)Cn1cc(-c2nc(NC3CCN(S(=O)(=O)CCCCN4CCCCC4)CC3)ncc2C#N)cn1 [Example 218, 4-(1-(2-Hydroxy-2-methylpropyl)-1H-pyrazol-4-yl)-2-((1-((4-(piperidin-1-yl)butyl)sulfonyl)piperidin-4-yl)amino)pyrimidine-5-carbonitrile] | < 50
CO[C@H]1CCN(CCCS(=O)(=O)N2CCC(Nc3ncc(C(F)(F)F)c(-c4cnn(CC(C)(C)O)c4)n3)CC2)C1 [Example 219, (S)-1-(4-(2-((1-((3-(3-Methoxypyrrolidin-1-yl)propyl)sulfonyl)piperidin-4-yl)amino)-5-(trifluoromethyl)pyrimidin-4-yl)-1H-pyrazol-1-yl)-2-methylpropan-2-ol] | < 50
COC[C@@H]1CCN1CCCS(=O)(=O)N1CCC(Nc2ncc(C(F)(F)F)c(-c3cnn(CC(C)(C)O)c3)n2)CC1 [Example 221, (S)-1-(4-(2-((1-((3-(2-(Methoxymethyl)azetidin-1-yl)propyl)sulfonyl)piperidin-4-yl)amino)-5-(trifluoromethyl)pyrimidin-4-yl)-1H-pyrazol-1-yl)-2-methylpropan-2-ol] | < 50
CC(C)(O)Cn1cc(-c2nc(NC3CCN(S(=O)(=O)CCCN4C[C@@H]5C[C@H]4CO5)CC3)ncc2C(F)(F)F)cn1 [Example 222, 1-(4-(2-((1-((3-((1S,4S)-2-Oxa-5-azabicyclo[2.2.1]heptan-5-yl)propyl)sulfonyl)piperidin-4-yl)amino)-5-(trifluoromethyl)pyrimidin-4-yl)-1H-pyrazol-1-yl)-2-methylpropan-2-ol] | < 50
CC(C)(O)Cn1cc(-c2nc(NC3CCN(S(=O)(=O)CCCN4CC[C@@](C)(O)C4)CC3)ncc2C(F)(F)F)cn1 [Example 223, (R)-1-(3-((4-((4-(1-(2-Hydroxy-2-methylpropyl)-1H-pyrazol-4-yl)-5-(trifluoromethyl)pyrimidin-2-yl)amino)piperidin-1-yl)sulfonyl)propyl)-3-methylpyrrolidin-3-ol] | < 50
CC(C)(O)Cn1cc(-c2nc(NC3CCN(S(=O)(=O)CCCN4CC(O)C4)CC3)ncc2C(F)(F)F)cn1 [Example 225, 1-(3-((4-((4-(1-(2-Hydroxy-2-methylpropyl)-1H-pyrazol-4-yl)-5-(trifluoromethyl)pyrimidin-2-yl)amino)piperidin-1-yl)sulfonyl)propyl)azetidin-3-ol] | < 50
CC(C)(O)Cn1cc(-c2nc(NC3CCN(S(=O)(=O)CCCNC4CC4)CC3)ncc2C(F)(F)F)cn1 [Example 226, 1-(4-(2-((1-((3-(Cyclopropylamino)propyl)sulfonyl)piperidin-4-yl)amino)-5-(trifluoromethyl)pyrimidin-4-yl)-1H-pyrazol-1-yl)-2-methylpropan-2-ol] | < 50
CC(C)(O)Cn1cc(-c2nc(NC3CCN(S(=O)(=O)CCO)CC3)ncc2C(F)(F)F)cn1 [Example 227, 1-(4-(2-((1-((2-Hydroxyethyl)sulfonyl)piperidin-4-yl)amino)-5-(trifluoromethyl)pyrimidin-4-yl)-1H-pyrazol-1-yl)-2-methylpropan-2-ol] | < 50

The remaining lines, values ahead:

IC50 [nM] | Structure (SMILES)
< 50 | CC(C)(O)Cn1cc(-c2nc(N[C@H]3CCN(S(=O)(=O)CCCN4CCCC4)C[C@H]3F)ncc2C(F)(F)F)cn1 [Example 203, 1-(4-(2-(((3R,4S)-3-Fluoro-1-((3-(pyrrolidin-1-yl)propyl)sulfonyl)piperidin-4-yl)amino)-5-(trifluoromethyl)pyrimidin-4-yl)-1H-pyrazol-1-yl)-2-methylpropan-2-ol]
< 50 | CC(C)(O)Cn1cc(-c2nc(N[C@H]3CCN(S(=O)(=O)CCCN4CCCCC4)C[C@H]3F)ncc2C(F)(F)F)cn1 [Example 204, 1-(4-(2-(((3R,4S)-3-Fluoro-1-((3-(piperidin-1-yl)propyl)sulfonyl)piperidin-4-yl)amino)-5-(trifluoromethyl)pyrimidin-4-yl)-1H-pyrazol-1-yl)-2-methylpropan-2-ol]
< 50 | CN(C)CCCS(=O)(=O)N1CC[C@H](Nc2ncc(C(F)(F)F)c(-c3cnn(CC(C)(C)O)c3)n2)[C@H](F)C1 [Example 205, 1-(4-(2-(((3R,4S)-1-((3-(Dimethylamino)propyl)sulfonyl)-3-fluoropiperidin-4-yl)amino)-5-(trifluoromethyl)pyrimidin-4-yl)-1H-pyrazol-1-yl)-2-methylpropan-2-ol]
< 50 | CO[C@@H]1CCN(CCCS(=O)(=O)N2CC[C@H](Nc3ncc(C(F)(F)F)c(-c4cnn(CC(C)(C)O)c4)n3)[C@H](F)C2)C1 [Example 206, 1-(4-(2-(((3R,4S)-3-Fluoro-1-((3-((R)-3-methoxypyrrolidin-1-yl)propyl)sulfonyl)piperidin-4-yl)amino)-5-(trifluoromethyl)pyrimidin-4-yl)-1H-pyrazol-1-yl)-2-methylpropan-2-ol]
< 50 | COC1CCN(CCCS(=O)(=O)N2CC[C@H](Nc3ncc(C(F)(F)F)c(-c4cnn(CC(C)(C)O)c4)n3)[C@H](F)C2)CC1 [Example 207, 1-(4-(2-(((3R,4S)-3-Fluoro-1-((3-(4-methoxypiperidin-1-yl)propyl)sulfonyl)piperidin-4-yl)amino)-5-(trifluoromethyl)pyrimidin-4-yl)-1H-pyrazol-1-yl)-2-methylpropan-2-ol]
< 50 | CC(C)(O)Cn1cc(-c2nc(N[C@H]3CCN(S(=O)(=O)CCCN4CCC(O)CC4)C[C@H]3F)ncc2C(F)(F)F)cn1 [Example 208, 1-(3-(((3R,4S)-3-Fluoro-4-((4-(1-(2-hydroxy-2-methylpropyl)-1H-pyrazol-4-yl)-5-(trifluoromethyl)pyrimidin-2-yl)amino)piperidin-1-yl)sulfonyl)propyl)piperidin-4-ol]
< 50 | CN1CCN(CCCS(=O)(=O)N2CC[C@H](Nc3ncc(C(F)(F)F)c(-c4cnn(CC(C)(C)O)c4)n3)[C@H](F)C2)CC1 [Example 209, 1-(4-(2-(((3R,4S)-3-Fluoro-1-((3-(4-methylpiperazin-1-yl)propyl)sulfonyl)piperidin-4-yl)amino)-5-(trifluoromethyl)pyrimidin-4-yl)-1H-pyrazol-1-yl)-2-methylpropan-2-ol]
< 50 | CCN1CCN(CCCS(=O)(=O)N2CC[C@H](Nc3ncc(C(F)(F)F)c(-c4cnn(CC(C)(C)O)c4)n3)[C@H](F)C2)CC1 [Example 210, 1-(4-(2-(((3R,45)-1-((3-(4-Ethylpiperazin-1-yl)propyl)sulfonyl)-3-fluoropiperidin-4-yl)amino)-5-(trifluoromethyl)pyrimidin-4-yl)-1H-pyrazol-1-yl)-2-methylpropan-2-ol]
< 50 | CN1C[C@@H]2C[C@H]1CN2CCCS(=O)(=O)N1CC[C@H](Nc2ncc(C(F)(F)F)c(-c3cnn(CC(C)(C)O)c3)n2)[C@H](F)C1 [Example 211, 1-(4-(2-(((3R,4S)-3-Fluoro-1-((3-((1S,4S)-5-methyl-2,5-diazabicyclo[2.2.1]heptan-2-yl)propyl)sulfonyl)piperidin-4-yl)amino)-5-(trifluoromethyl)pyrimidin-4-yl)-1H-pyrazol-1-yl)-2-methylpropan-2-ol]
< 50 | CN1CCN(CCCS(=O)(=O)N2CC[C@H](Nc3ncc(C(F)(F)F)c(-c4cnn(CC(C)(C)O)c4)n3)[C@H](F)C2)CC1=O [Example 212, 4-(3-(((3R,4S)-3-Fluoro-4-((4-(1-(2-hydroxy-2-methylpropyl)-1H-pyrazol-4-yl)-5-(trifluoromethyl)pyrimidin-2-yl)amino)piperidin-1-yl)sulfonyl)propyl)-1-methylpiperazin-2-one]
< 50 | CO[C@@H]1CCN(CCCS(=O)(=O)N2CCC(Nc3ncc(C(F)(F)F)c(-c4cnn(CC(C)(C)O)c4)n3)CC2)C1 [Example 220, (R)-1-(4-(2-((1-((3-(3-Methoxypyrrolidin-1-yl)propyl)sulfonyl)piperidin-4-yl)amino)-5-(trifluoromethyl)pyrimidin-4-yl)-1H-pyrazol-1-yl)-2-methylpropan-2-ol]
< 50 | CC(C)(O)Cn1cc(-c2nc(NC3CCN(S(=O)(=O)CCCN4CC[C@@H](O)C4)CC3)ncc2C(F)(F)F)cn1 [Example 224, (R)-1-(3-((4-((4-(1-(2-Hydroxy-2-methylpropyl)-1H-pyrazol-4-yl)-5-(trifluoromethyl)pyrimidin-2-yl)amino)piperidin-1-yl)sulfonyl)propyl)pyrrolidin-3-ol]
